Experimental data: patent US20230357099A1, “PYRAZOLO [3,4-B] PYRIDINE-4-CARBOXAMIDE NITRIFICATION INHIBITOR” (EUROCHEM ANTWERPTEN, priority 2020, published 2023)
Read-outs that look alike come from different tables or passages of the source.

Columns and labels:
[1] = test system: Nitrososphaera viennensis; experiment: Nitrification inhibition assay on Nitrososphaera viennensis (nitrite, Griess); format: cell-based, Nitrososphaera viennensis EN76T; settings: for activity at 2.5 µM: Nitrososphaera viennensis, 2.5 µM compound, structural variants outside formula (I), read-out: Relative nitrification (%) by Nitrososphaera viennensis treated with 2.5 µM compound
Method: Nitrite (NO2—) was measured using the Griess reagent (Product number: G4410, Griess reagent (modified), Sigma-Aldrich). Equal volumes of the sample or a diluted sample and the Griess reagent were mixed a transparent flat bottom multi-well plate and incubated in the dark at room temperature for 10 minutes. Absorbance values at 540 nm were measured spectrophotometrically (EnVision, Perkin Elmer®) and used to calculate the [NO2—] by use of a standard curve.
A liquid culture sample of Nitrososphaera viennensis EN76T was kindly supplied by prof. dr. Christa Schleper (University of Vienna). Cells were grown in fresh water medium (FWM) as described earlier by Tourna et al. (2011). All necessary materials were rinsed with 1 % HCl and washed at least 3 times with MilliQ water. FWM (pH 7.5 (KOH)) contained 17 mM NaCl, 3 mM MgCl2 × 2 H2O, 680 µM CaCl2 × 2 H2O, 1.47 mM KH2PO4 and 6.71 mM KCI. After autoclaving, successively 1 mL non-chelated trace element mixture (101 mM HCl, 488 µM H3BO3, 508 µM MnCl2 × 4 H2O, 803 µM CoCl2 × 6 H2O, 101 µM NiCl2 × 6 H2O, 12 µM CuCl2 × 2 H2O, 503 µM ZnSO4 × 7 H2O and 150 µM Na2MoO4 × 2 H2O), 1 mL Fe-NaEDTA (7.5 mM), 1 mL vitamin solution (20 mg/L biotin, 20 mg/L folic acid, 100 mg/L pyridoxine-HCl, 50 mg/L thiamine-HCl, 50 mg/L riboflavin, 50 mg/L nicotinic acid, 50 mg/L DL-pantothenic acid, 50 mg/L P-aminobenzoic acid, 2 g/L choline chloride and 10 mg/L vitamin B12), 2 mL NaHCO3 (1 M), 2 mL kanamycin (100 mg/mL), 2 mL carbenicillin (100 mg/mL), 3 mL NH4Cl (1 M), 10 mL HEPES buffer (1 M, pH 7.6) and 1 mL Na-pyruvate (0.1 M) were added aseptically. All stock-solutions were filter-sterilized, except the autoclaved non-chelated trace element mixture. Cultures were incubated aerobically at 42° C. without shaking in sterile 250-mL Erlenmeyer flasks or 30-mL cultivation tubes (Product number: 216-1290, Quickstart universal containers STERILIN®, VWR) filled with either 100 or 20 mL FWM and sealed with tape (Micropore™ Surgical Tape 1530-1, 3M™). Late-log phase cultures ([NO2-] ≥ 1 mM) were subcultivated by dilution (1:400) in fresh FWM.
7-day old 100 mL cultures grown in 250-mL Erlenmeyer flasks with a [NO2-] ≥ 1 mM were 5 times overconcentrated in fresh FWM by centrifugation (4000 rpm, 15 min, 5° C.) in 50 mL centrifuge tubes (Cat. No. 430829, CentriStar™ Conical Centrifuge Tubes, Corning®). Per batch, all the cultures were pooled in one sterile Schott bottle. Subsequently, 200 µl/well was dispensed at low pipetting speed in transparent flat bottom 96-well plates (Cat. No. 353072, Falcon® 96 Well Clear Microplate, Corning®) using 150 µl wide-bore tips (two steps of 100 µl) on a Tecan robot (Freedom EVO®, Tecan). 0.5 µl of 99.99 % DMSO (negative control - final concentration 0.25%) and 0.5 µl of 0.04 M PTIO (2-phenyl-4,4,5,5-tetramethylimidazoline-1-oxyl 3-oxide, positive control - final concentration 100 µM) were added manually to the first and last column respectively. Finally, 0.5 µl of candidate nitrification inhibitors (1 mM stock solutions in 99.99% DMSO - final concentration 2.5 µM) were added to the central wells using a pin tool on a Tecan robot (Freedom EVO®, Tecan). In between additions, the pins were washed in sequence with 99.5% DMSO, MilliQ water and 100% ethanol and air-dried. All plates were sealed with tape (Micropore™ Surgical Tape 1530-1, 3M™), stacked per 4 on top of a 96-well plate filled with 100 µl MilliQ per well and covered with aluminum foil. Position effects of the stacks within the incubator were considered. Plates were incubated at 42° C. without shaking. 24 h later, NO2— was measured spectrophotometrically at 540 nm (EnVision, Perkin Elmer®). […]

[2] = test system: ABIL (ammonia-binding liquid inoculum), nitrifying microbial enrichment containing both AOA and AOB; experiment: Nitrification inhibition assay on ABIL (ammonium consumption); format: cell-based; settings: 10 µM compound
[3] = structural variants outside formula (I), read-out: Relative nitrification (%) by ABIL treated with 10 µM compound

| SMILES | activity at 2.5 µM [1] [%] | activity at 10 µM [2, 3] [%] | other results |
| --- | --- | --- | --- |
| COCCNC(=O)c1cc(-c2ccc(C)cc2)nc2c1cnn2C(C)C [Example 1] |  |  | N. viennensis - relative nitrification (%) at 0.5 µM ([1]; 0.5 µM compound, 0% = as strong as 100 µM PTIO, 100% = no inhibition): 52%; N. viennensis - relative nitrification (%) at 5 µM ([1]; 5 µM compound, 0% = as strong as 100 µM PTIO, 100% = no inhibition): 0%; N. viennensis - relative nitrification (%) at 25 µM ([1]; 25 µM compound, 0% = as strong as 100 µM PTIO, 100% = no inhibition): 0%; activity at 10 µM ([2]; 24 h, 24 h, 0% = as strong as 100 µM PTIO, 100% = no inhibition, read-out: ABIL - relative nitrification (%) at 10 µM): -9% |
| CCN(Cc1nc2ccccc2c(=O)[nH]1)C(=O)CCc1c(C)nc2c(cnn2C(C)C)c1C [Example 92] | 100 | 100 |  |
| CN(C(=O)Nc1ccc2c(cnn2C(F)F)c1)C1CCSC1 (stereo not shown) [Example 159] | 91 | 100 |  |
| c1ccc(N2CCOCC2)c(CNc2ccc3[nH]ncc3c2)c1 [Example 105] | 100 | 94 |  |
| O=C(NCc1ccc(F)cc1C(F)(F)F)c1cccc2cn[nH]c12 [Example 147] | 92 | 100 |  |
| O=C(NC1=NCCS1)c1n[nH]c2ccccc12 [Example 111] | 95 | 98 |  |
| CC(C)n1ncc2cc(C(=O)Nc3ccc(F)cc3F)cnc21 [Example 33] | 100 | 94 |  |
| CC(C)n1ncc2cc(NC(=O)CCC(=O)c3ccccc3)cnc21 [Example 68] | 100 | 100 |  |
| COCCN(C(=O)c1cnc2c(cnn2C(C)C)c1)C1CC1 [Example 79] | 97 | 100 |  |
| O=S(=O)(Cc1ccccc1F)Nc1ccc2[nH]ncc2c1 [Example 153] | 100 | 100 |  |
| CC(C)n1ncc2cc(C(=O)Nc3ccnn3Cc3ccc(Cl)cc3Cl)cnc21 [Example 84] | 100 | 100 |  |
| CC(C)n1ncc2cc(NC(=O)CN(C)S(=O)(=O)c3cccs3)cnc21 [Example 88] | 94 | 100 |  |
| CCC(C)(CC)NC(=O)COc1nn(C)c2nc(C)cc(C)c12 [Example 64] | 100 | 100 |  |
| Cc1nc2c(cc1C(=O)NC(C)C1CCCO1)c(C)nn2C (stereo not shown) [Example 48] | 99 | 100 |  |
| CC(C)n1ncc2cc(CNc3ccc4[nH]ncc4c3)cnc21 [Example 94] | 100 | 92 |  |
| CC(=O)NC(CC(=O)Nc1cnc2c(cnn2C(C)C)c1)c1ccc(Cl)cc1 (stereo not shown) [Example 23] | 100 | 91 |  |
| CC(C)n1ncc2cc(NC(=O)CCS(=O)(=O)c3ccc(Cl)cc3)cnc21 [Example 28] | 100 | 92 |  |
| COCCC1(C(=O)Nc2cnc3[nH]nc(C)c3c2)CCCC1 [Example 49] | 100 | 100 |  |
| O=C(Nc1ccc(C(=O)Nc2cccc3cn[nH]c23)cc1)c1ccccc1 [Example 137] | 98 | 100 |  |
| O=C(c1n[nH]c2ccccc12)N1CCSCC1 [Example 123] | 92 | 100 |  |
| CCOc1cc(C(=O)Nc2cnc3c(cnn3C(C)C)c2)c([N+](=O)[O-])cc1OC [Example 73] | 93 | 100 |  |
| Cc1nc2c(cnn2C(C)C)c(C)c1CCC(=O)NC12CC3CC(CC(C3)C1)C2 [Example 63] | 100 | 100 |  |
| Cc1n[nH]c2nc(C(F)(F)F)cc(C(F)(F)F)c12 [Example 20] | 100 | 90 |  |

| SMILES | activity at 2.5 µM [1] [%] | activity at 10 µM [2, 3] [%] | other results |
| --- | --- | --- | --- |
| COC(=O)c1n[nH]c2ccc(NS(=O)(=O)c3ccc(Cl)c(Cl)c3)cc12 [Example 101] | 94 | 90 |  |
| COc1ccccc1CN(C)C(=O)c1cc2cnn(C(C)C)c2nc1C [Example 93] | 100 | 100 |  |
| CC(C)n1ncc2cc(C(=O)NCc3ccccc3OC(F)(F)F)cnc21 [Example 42] | 98 | 98 |  |
| CC(CNC(=O)c1cccc2[nH]ncc12)CC1(C)OCCO1 (stereo not shown) [Example 110] | 100 | 97 |  |
| CCNC(=O)c1cccc(NC(=O)c2n[nH]c3ccccc23)c1 [Example 122] | 95 | 100 |  |
| Cc1nc2c(c(C)nn2C)c(C)c1CCC(=O)Nc1ccccc1C(=O)O [Example 77] | 100 | 100 |  |
| Cc1nnc(NC(=O)c2cnc3c(cnn3C(C)C)c2)s1 [Example 55] | 100 | 100 |  |
| Cc1nc2c(c(C)nn2C)c(C)c1CCC(=O)N1CCOCC1 [Example 60] | 100 | 100 |  |
| COCCn1ncc2ccc(NS(=O)(=O)c3ccc4c(c3)CCC4)cc21 [Example 144] | 100 | 100 |  |
| O=S(=O)(Nc1n[nH]c2ccccc12)c1ccccc1C(F)(F)F [Example 139] | 97 | 100 |  |
| Cc1nc2cc(NC(=O)c3cnc4c(cnn4C(C)C)c3)ccc2o1 [Example 44] | 100 | 99 |  |
| Cc1nc2c(cnn2C(C)C)cc1C(=O)N1CCSCC1 [Example 78] | 100 | 100 |  |
| CC(C)n1ncc2cc(NC(=O)Cc3ccc(F)cc3)cnc21 [Example 56] | 100 | 100 |  |
| CCC(C)n1ncc2c(C(=O)O)cc(C3CC3)nc21 (stereo not shown) [Example 32] | 90 | 94 |  |
| O=C(O)CC1(CC(=O)Nc2ccc3cn[nH]c3c2)CCCCC1 [Example 129] | 100 | 100 |  |
| CC(C)n1ncc2cc(NC(=O)C3=CN4CCS(=O)(=O)N=C4C=C3)cnc21 [Example 53] | 95 | 100 |  |
| Cc1nc2c(cnn2C(C)C)cc1C(=O)NC(C)C1CCCO1 (stereo not shown) [Example 90] | 93 | 100 |  |
| COC(=O)c1cc(CNC(=O)c2n[nH]c3ccccc23)ccc1OC [Example 100] | 96 | 90 |  |
| COc1ccc(C(O)CNCc2cccc3cn[nH]c23)cc1 (stereo not shown) [Example 154] | 99 | 100 |  |
| CC(C)n1ncc2cc(C(=O)N(C)Cc3nc4ccccc4s3)cnc21 [Example 85] | 100 | 100 |  |
| Cc1n[nH]c2ncc(CNCCc3ccsc3)cc12 [Example 40] | 93 | 98 |  |
| Cc1nc2c(c(C)nn2C)c(C)c1CCC(=O)NCC1CCCO1 (stereo not shown) [Example 80] | 100 | 100 |  |
| O=S1(=O)CCCN1c1cccc(NCc2cccc3cn[nH]c23)c1 [Example 106] | 100 | 94 |  |
